This test can be described thus: Reversal of MRP1-mediated doxorubicin-resistance in human HeLa-T5 cells assessed as reduction of doxorubicin IC50 percent by half.

pEC50: −log10 of the molar value.

Take `Cc1onc2c1c(=O)n([C@H]1CCC[C@@H](CNC(=O)c3ccccc3)C1)c1cccc(Cl)c21` (racemic) [N-(((1R,3S)-3-(9-chloro-3-methyl-4-oxoisoxazolo[4,3-c]quinolin-5(4H)-yl)cyclohexyl)methyl)benzamide]: the pEC50 was 7.03.
